Results reported in ChEMBL document CHEMBL3352011, “Identification of novel 4-anilinoquinazoline derivatives as potent EGFR inhibitors both under normoxia and hypoxia” (Bioorg Med Chem, 2014).

Experiments:
[1] = target: Epidermal growth factor receptor (Homo sapiens, UniProt P00533);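 also: Wild-type EGFR enzyme inhibition, measured with a Z'-Lyte kinase assay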
Description: Inhibition of wild type EGFR (unknown origin) by Z'-Lyte kinase assay

A549 [2] = assay: cells; type: functional, cell-based; settings: Homo sapiens, A549, 72 h
Description: Antiproliferative activity against human A549 cells assessed as inhibition of cell proliferation under hypoxia conditions after 72 hrs by SRB assay

HT-29 [3] = assay: cells; type: functional, cell-based; settings: Homo sapiens, HT-29, 72 h
Description: Antiproliferative activity against human HT-29 cells assessed as inhibition of cell proliferation under hypoxia conditions after 72 hrs by SRB assay

A549 [4] = assay: cells; type: functional, cell-based; settings: Homo sapiens, A549, 72 h; remark: listed apart in the source
Description: Antiproliferative activity against human A549 cells assessed as inhibition of cell proliferation under normoxia conditions after 72 hrs by SRB assay

HT-29 [5] = assay: cells; type: functional, cell-based; settings: Homo sapiens, HT-29, 72 h; remark: listed apart in the source
Description: Antiproliferative activity against human HT-29 cells assessed as inhibition of cell proliferation under normoxia conditions after 72 hrs by SRB assay

[6] = Bioreductive drug activation in pH 7.4 PBS solution assessed as formation of hydroxylamino-imidazole at 4.2 umol incubated for 6 hrs in presence of cysteine and zinc dust by HPLC-Q-ToF-MS method
A549 [7] = assay: Induction of apoptosis in human A549 cells at 10 uM under normoxia conditions after 72 hrs by annexin VFITC/propidium iodide staining based flow cytometry (reference value: 3.94%); type: functional
[8] = Drug metabolism in mouse liver microsomes at 5 uM in presence of NADPH incubated for 30 mins under normoxia conditions by HPLC method; type: ADME; settings: read-out: Drug metabolism
[9] = Drug metabolism in mouse liver microsomes at 5 uM in presence of NADPH incubated for 30 mins under hypoxia conditions by HPLC method; type: ADME; settings: read-out: Drug metabolism
[10] = Bioreductive drug activation in pH 7.4 PBS solution assessed as formation of imidazole radical at 4.2 umol incubated for 6 hrs in presence of cysteine and zinc dust by HPLC-Q-ToF-MS method
A549 [11] = assay: Induction of apoptosis in human A549 cells at 10 uM under hypoxia conditions after 72 hrs by annexin VFITC/propidium iodide staining based flow cytometry (reference value: 4.7%); type: functional

Epidermal growth factor receptor, sequence (P00533 whole entry): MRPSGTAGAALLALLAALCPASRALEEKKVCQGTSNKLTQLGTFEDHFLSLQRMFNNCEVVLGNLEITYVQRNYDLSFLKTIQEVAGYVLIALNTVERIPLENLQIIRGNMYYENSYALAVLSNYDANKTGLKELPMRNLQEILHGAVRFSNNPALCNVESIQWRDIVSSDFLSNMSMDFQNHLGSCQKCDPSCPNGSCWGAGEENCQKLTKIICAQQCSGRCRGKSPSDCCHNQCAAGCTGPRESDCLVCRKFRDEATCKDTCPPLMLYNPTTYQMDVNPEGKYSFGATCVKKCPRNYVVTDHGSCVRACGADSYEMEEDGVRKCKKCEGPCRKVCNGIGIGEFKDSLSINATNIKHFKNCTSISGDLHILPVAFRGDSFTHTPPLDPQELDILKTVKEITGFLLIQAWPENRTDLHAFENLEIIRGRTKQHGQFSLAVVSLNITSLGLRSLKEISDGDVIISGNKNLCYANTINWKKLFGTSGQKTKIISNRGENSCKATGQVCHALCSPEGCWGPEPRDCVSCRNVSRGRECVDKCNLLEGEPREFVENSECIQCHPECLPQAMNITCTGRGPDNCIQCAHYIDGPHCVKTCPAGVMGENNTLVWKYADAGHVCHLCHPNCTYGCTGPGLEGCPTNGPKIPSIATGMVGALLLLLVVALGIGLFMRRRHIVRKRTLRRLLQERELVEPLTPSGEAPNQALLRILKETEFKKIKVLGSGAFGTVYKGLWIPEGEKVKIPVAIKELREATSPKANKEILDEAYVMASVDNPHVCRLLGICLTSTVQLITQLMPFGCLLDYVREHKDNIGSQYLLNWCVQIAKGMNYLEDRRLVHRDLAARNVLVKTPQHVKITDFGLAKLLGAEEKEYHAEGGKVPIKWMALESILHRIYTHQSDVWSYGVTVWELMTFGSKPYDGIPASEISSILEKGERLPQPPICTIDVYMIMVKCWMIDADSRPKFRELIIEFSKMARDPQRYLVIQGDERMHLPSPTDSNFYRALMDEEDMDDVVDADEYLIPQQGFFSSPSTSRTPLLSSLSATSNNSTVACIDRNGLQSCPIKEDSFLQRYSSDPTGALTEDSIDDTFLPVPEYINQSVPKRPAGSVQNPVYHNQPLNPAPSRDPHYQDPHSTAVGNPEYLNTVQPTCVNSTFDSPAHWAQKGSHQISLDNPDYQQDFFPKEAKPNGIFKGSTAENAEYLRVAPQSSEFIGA

| IC50 [1] | IC50 (A549 [2]) | IC50 (HT-29 [3]) | IC50 (A549 [4]) | IC50 (HT-29 [5]) | metabolised at 0.5 h, 5 µM [8] | metabolised at 0.5 h, 5 µM [9] | SMILES | Drug metabolism [6] | Activity (A549 [7]) | Drug metabolism [10] | Activity (A549 [11]) |
| --- | --- | --- | --- | --- | --- | --- | --- | --- | --- | --- | --- |
| 0.00026 µM | 1.08 µM | 0.59 µM | 2.21 µM | 2.52 µM |  |  | C#Cc1cccc(Nc2ncnc3cc(OCCCCn4ccnc4[N+](=O)[O-])c(OC)cc23)c1 |  |  |  |  |
| 0.0305 µM | 1.52 µM | 0.94 µM | 3.97 µM | 3.79 µM |  |  | COc1cc2c(Nc3ccc(OCc4cccc(F)c4)c(Cl)c3)ncnc2cc1OCCCn1ccnc1[N+](=O)[O-] |  |  |  |  |
|  | 1.74 µM | 1.03 µM | 4.26 µM | 4.08 µM |  |  | COc1cc2c(Nc3ccc(F)c(Cl)c3)ncnc2cc1OCCCCCn1ccnc1[N+](=O)[O-] |  |  |  |  |
| 0.00082 µM | 10.1 µM | 3.44 µM | 13 µM | 10.8 µM |  |  | COc1cc2c(Nc3cccc(Br)c3)ncnc2cc1OCCOCCn1ccnc1[N+](=O)[O-] |  |  |  |  |
| 0.0201 µM | 6.23 µM | 2.59 µM | 5.06 µM | 7.64 µM |  |  | COc1cc2c(Nc3ccc(OCc4cccc(F)c4)c(Cl)c3)ncnc2cc1OCCOCCn1ccnc1[N+](=O)[O-] |  |  |  |  |
| 0.00054 µM | 6.43 µM | 6.04 µM | 9.77 µM | 8.77 µM |  |  | C#Cc1cccc(Nc2ncnc3cc(OCCOCCn4ccnc4[N+](=O)[O-])c(OC)cc23)c1 |  |  |  |  |
| 0.00049 µM | 7.83 µM | 2.82 µM | 13.5 µM | 10.9 µM |  |  | COc1cc2c(Nc3cccc(Br)c3)ncnc2cc1OCCCn1ccnc1[N+](=O)[O-] |  |  |  |  |
|  | 1.17 µM |  | 2.31 µM | 3.17 µM |  |  | C#Cc1cccc(Nc2ncnc3cc(OCCCn4ccnc4[N+](=O)[O-])c(OC)cc23)c1 |  |  |  |  |
| 0.00033 µM | 8.42 µM | 2.54 µM | 8.78 µM | 5.05 µM |  |  | COc1cc2c(Nc3cccc(Br)c3)ncnc2cc1OCCCCCn1ccnc1[N+](=O)[O-] |  |  |  |  |
| 0.00031 µM | 1.41 µM | 0.67 µM | 2.67 µM | 1.54 µM |  |  | COc1cc2c(Nc3ccc(F)c(Cl)c3)ncnc2cc1OCCCCn1ccnc1[N+](=O)[O-] |  |  |  |  |
| 0.00077 µM | 4.31 µM | 2.06 µM | 5.91 µM | 6.14 µM |  |  | COc1cc2c(Nc3ccc(F)c(Cl)c3)ncnc2cc1OCCCn1ccnc1[N+](=O)[O-] |  |  |  |  |
| 0.0166 µM | 14.4 µM | 5.04 µM | 19.9 µM | 14.1 µM |  |  | COc1cc2c(Nc3ccc(OCc4cccc(F)c4)c(Cl)c3)ncnc2cc1OCCCCCn1ccnc1[N+](=O)[O-] |  |  |  |  |
| 0.00057 µM | 2.7 µM | 1.37 µM | 10.3 µM | 4.5 µM |  |  | C#Cc1cccc(Nc2ncnc3cc(OCCCCCCn4ccnc4[N+](=O)[O-])c(OC)cc23)c1 |  |  |  |  |
| 0.00047 µM | 0.18 µM | 0.28 µM | 0.77 µM | 1.31 µM | < 10% | > 80% | C#Cc1cccc(Nc2ncnc3cc(OCCCCCn4ccnc4[N+](=O)[O-])c(OC)cc23)c1 | Metabolite detected | 12.46% | Metabolite detected | 26.15% |
| 0.00078 µM | 20.2 µM | 4.3 µM | 30.2 µM | 10.5 µM |  |  | COc1cc2c(Nc3cccc(Br)c3)ncnc2cc1OCCCCCCn1ccnc1[N+](=O)[O-] |  |  |  |  |
| 0.00144 µM | 6.52 µM | 1.84 µM | 13.4 µM | 5.63 µM |  |  | COc1cc2c(Nc3ccc(F)c(Cl)c3)ncnc2cc1OCCCCCCn1ccnc1[N+](=O)[O-] |  |  |  |  |
|  | 6.9 µM |  | > 50 µM | > 50 µM |  |  | Nc1n[n+]([O-])c2ccccc2[n+]1[O-] [TIRAPAZAMINE] |  |  |  |  |
|  | 8.69 µM | 2.27 µM | 10.5 µM | 4.49 µM |  |  | COc1cc2c(Nc3ccc(OCc4cccc(F)c4)c(Cl)c3)ncnc2cc1OCCCCn1ccnc1[N+](=O)[O-] |  |  |  |  |
| 0.00037 µM | 1.97 µM | 1.43 µM | 3.09 µM | 4.02 µM |  |  | COc1cc2c(Nc3cccc(Br)c3)ncnc2cc1OCCCCn1ccnc1[N+](=O)[O-] |  |  |  |  |
| 0.0355 µM | > 50 µM | > 50 µM | > 50 µM | > 50 µM |  |  | COc1cc2c(Nc3ccc(OCc4cccc(F)c4)c(Cl)c3)ncnc2cc1OCCCCCCn1ccnc1[N+](=O)[O-] |  |  |  |  |
| 0.00032 µM | 7.64 µM | 5.52 µM | 12.9 µM | 9.86 µM |  |  | COc1cc2c(Nc3ccc(F)c(Cl)c3)ncnc2cc1OCCOCCn1ccnc1[N+](=O)[O-] |  |  |  |  |
